The values below are quoted from earlier work in article PMC9324670, “Pd(II) Binding Strength of a Novel Ambidentate Dipeptide-Hydroxypyridinonate Ligand: A Solution Equilibrium Study” (Molecules, 2022).

Details of data set [1]: method as in doi:10.1016/S0020-1693(00)91874-7. To be noted: fixed values used in the equilibrium models.
For data set [2] the following is noted: pH-potentiometry.

Turning to `[Cl][Pd+]` [[PdCl]^+], the “logβ (stability constant of the complex in the Pd(II)–Cl^− system)” value (“logβ” below) in data set [1] is recorded as 4.47. Consider `[Cl][Pd-2]([Cl])([Cl])[Cl]` [[PdCl4]^2−], for which, in data set [1], the “logβ” value is 11.56. As for `[Cl][Pd-]([Cl])[Cl]` [[PdCl3]^−], in data set [1], the “logβ” value is recorded as 10.17. Take `[Cl][Pd][Cl]` [[PdCl2]]: in data set [1], the “logβ” value is 7.76. As for `Cc1c(O)c(=O)ccn1C` [H(L4), 3-hydroxy-1,2-dimethylpyridin-4(1H)-one], the “pKOH(3)” value in data set [2] is reported as 9.76.
